Assay results taken from patent publication US9650336B2, “Mono-fluoro beta-secretase inhibitors” (ASTRAZENECA AB, priority 2011, dated 2017).
pIC50: −log10 of the molar value.

Columns and labels:
[1] = biological target: T1, human β-secretase (sBACE-Fc, soluble part AA 1-AA 460) (Homo sapiens (Human), UniProt P56817); assay: Diluted TR-FRET assay; format: biochemical; conditions: 50 times less enzyme, 6.5 h reaction time at r.t. in the dark; read-out: IC50 from the diluted FRET assay
Experimental: (§1) The β-secretase enzyme used in the TR-FRET is prepared as follows:
(§2) The cDNA for the soluble part of the human 13-Secretase (AA 1-AA 460) was cloned using the ASP2-Fc10-1-IRES-GFP-neoK mammalian expression vector. The gene was fused to the Fc domain of IgG1 (affinity tag) and stably cloned into HEK 293 cells.
[…] The robotic systems Biomek FX and Velocity 11 were used for all liquid handling and the enzyme and substrate solutions were kept on ice until they were placed in the robotic system. Enzyme (9 μL) was added to the plate then 1 μL of compound in dimethylsulphoxide was added, mixed and pre-incubated for 10 minutes. […] The reaction was stopped with the addition of Stop solution (7 μL, NaAcetate, pH 9). The fluorescence of the product was measured on a Victor II plate reader with an excitation wavelength of 340 nm and an emission wavelength of 615 nm. The assay was performed in a Costar 384 well round bottom, low volume, non-binding surface plate (Corning #3676). […] The dimethylsulphoxide control, instead of test compound, defined the 100% activity level and 0% activity was defined by wells lacking enzyme (replaced with reaction buffer).

[2] = test system: sAPPβ release in SH-SY5Y cells; assay: sAPPβ release assay; format: cell-based; conditions: Homo sapiens, 17 h incubation
Experimental: SH-SY5Y cells were cultured in DMEM/F-12 with Glutamax, 10% FCS and 1% non-essential amino acids and cryopreserved and stored at −140° C. at a concentration of 7.5-9.5×10^6 cells per vial. Thaw cells and seed at a conc. of around 10000 cells/well in DMEM/F-12 with Glutamax, 10% FCS and 1% non-essential amino acids to a 384-well tissue culture treated plate, […] cell susp/well. The cell plates were then incubated for 7-24 h at 37° C., 5% CO2. The cell medium was removed, followed by addition of 30 μL compound diluted in DMEM/F-12 with Glutamax, 10% FCS, 1% non-essential amino acids and 1% PeSt to a final conc. of 1% DMSO. The compounds were incubated with the cells for 17 h (overnight) at 37° C., 5% CO2. Meso Scale Discovery (MSD) plates were used for the detection of sAPPβ release. MSD sAPPβ plates were blocked in 1% BSA in Tris wash buffer (40 μL/well) for 1 h on shake at r.t. and washed 1 time in Tris wash buffer (40 μL/well). 20 μL of medium was transferred to the pre-blocked and washed MSD sAPPβ microplates, and the cell plates were further used in an ATP assay to measure cytotoxicity. The MSD plates were incubated with shaking at r.t. for 2 h and the media discarded. 10 μL detection antibody was added (1 nM) per well followed by incubation with shaking at r.t. for 2 h and then discarded. 40 μL Read Buffer was added per well and the plates were read in a SECTOR Imager.

[3] = biological target: T1, human β-secretase (sBACE-Fc, soluble part AA 1-AA 460); assay: TR-FRET assay; format: biochemical; conditions: TruPoint BACE1 substrate 100 nM, pH 4.5, 15 min at r.t.
Experimental: as §1, §2
The enzyme (truncated form) was diluted to 6 μg/mL (stock 1.3 mg/mL) and the TruPoint BACE1 Substrate to 200 nM (stock 120 μM) in reaction buffer (NaAcetate, chaps, triton x-100, EDTA pH4.5). The robotic systems Biomek FX and Velocity 11 were used for all liquid handling and the enzyme and substrate solutions were kept on ice until they were placed in the robotic system. Enzyme (9 μL) was added to the plate then 1 μL of compound in dimethylsulphoxide was added, mixed and pre-incubated for 10 minutes. Substrate (10 μL) was then added, mixed and the reaction proceeded for 15 minutes at r.t. The reaction was stopped with the addition of Stop solution (7 μL, NaAcetate, pH 9). The fluorescence of the product was measured on a Victor II plate reader with an excitation wavelength of 340 nm and an emission wavelength of 615 nm. The assay was performed in a Costar 384 well round bottom, low volume, non-binding surface plate (Corning #3676). […] The dimethylsulphoxide control, instead of test compound, defined the 100% activity level and 0% activity was defined by wells lacking enzyme (replaced with reaction buffer).

T1 sequence (P56817 22-460): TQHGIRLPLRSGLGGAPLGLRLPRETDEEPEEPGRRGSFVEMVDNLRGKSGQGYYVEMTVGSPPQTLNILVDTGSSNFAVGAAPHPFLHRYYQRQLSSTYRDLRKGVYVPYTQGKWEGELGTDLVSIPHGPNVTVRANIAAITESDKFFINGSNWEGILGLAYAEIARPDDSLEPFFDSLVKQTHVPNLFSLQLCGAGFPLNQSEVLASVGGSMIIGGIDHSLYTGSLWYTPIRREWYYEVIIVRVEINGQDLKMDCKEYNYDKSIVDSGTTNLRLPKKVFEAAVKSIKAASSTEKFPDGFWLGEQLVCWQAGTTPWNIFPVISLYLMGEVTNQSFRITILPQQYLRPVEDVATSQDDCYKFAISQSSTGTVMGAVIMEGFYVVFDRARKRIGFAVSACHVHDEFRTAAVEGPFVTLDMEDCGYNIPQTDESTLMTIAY

| pIC50 [1] | pIC50 [2] | pIC50 [3] | Structure (SMILES) |
| --- | --- | --- | --- |
|  | 7.52 | 6.11 | CC1(C)COc2ccc(-c3cncc(F)c3)cc2C12C=C(F)C(N)=N2 (stereo not drawn) [Example 7, 4′-Fluoro-6-(5-fluoropyridin-3-yl)-3,3-dimethylspiro[chroman-4,2′-pyrrol]-5′-amine] |
|  | 6.59 | 6.19 | CC1(C)COc2ccc(-c3cc(F)cc(F)c3)cc2C12C=C(F)C(N)=N2 (stereo not drawn) [Example 8, 6-(3,5-Difluorophenyl)-4′-fluoro-3,3-dimethylspiro[chroman-4,2′-pyrrol]-5′-amine] |
|  | 6.77 | 5.42 | CC1(C)Cc2ccc(-c3cncnc3)cc2C12C=C(F)C(N)=N2 (stereo not drawn) [Example 9, 4′-fluoro-2,2-dimethyl-6-(pyrimidin-5-yl)-2,3-dihydrospiro[indene-1,2′-pyrrol]-5′-amine] |

Continued, molecule first:

| Structure (SMILES) | pIC50 [1] | pIC50 [2] | pIC50 [3] |
| --- | --- | --- | --- |
| CO[C@H]1CC[C@]2(CC1)Cc1ccc(-c3cncnc3)cc1C21C=C(F)C(N)=N1 (stereo partly drawn) [Example 1, (1r,4r)-4″-fluoro-4-methoxy-6′-(pyrimidin-5-yl)-3′H-dispiro[cyclohexane-1,2′-indene-1,2″-pyrrol]-5″amine] | 7.66 | 8.96 |  |
| CO[C@H]1CC[C@@]2(CC1)Cc1ccc(-c3cncnc3)cc1C21C=C(F)C(N)=N1 (stereo partly drawn) [Example 2, (1s,4s)-4″-Fluoro-4-methoxy-6′-(pyrimidin-5-yl)-3′H-dispiro[cyclohexane-1,2′-indene-1,2″-pyrrol]-5″amine] |  | 7.25 | 5.71 |
| CC#Cc1cncc(-c2ccc3c(c2)C2(C=C(F)C(N)=N2)[C@]2(CC[C@H](OC)CC2)C3)c1 (stereo partly drawn) [Example 3, (1r,4r)-4″-Fluoro-4-methoxy-6′-[5-(prop-1-yn-1-yl)pyridin-3-yl]-3′H-dispiro[cyclohexane-1,2′-indene-1′,2″-pyrrol]-5″amine] |  | 10.51 | 7.74 |
| CC#Cc1cncc(-c2ccc3c(c2)C2(C=C(F)C(N)=N2)[C@]2(CC[C@@H](OC)CC2)C3)c1 (stereo partly drawn) [Example 4, (1s,4s)-4″-Fluoro-4-methoxy-6′-[5-(prop-1-yn-1-yl)pyridin-3-yl]-3′H-dispiro[cyclohexane-1,2′-indene-1′,2″-pyrrol]-5″amine] |  | 8.96 | 6.59 |
| CO[C@H]1CC[C@]2(CC1)Oc1ccc(-c3cc(F)cc(C#N)c3)cc1C21C=C(F)C(N)=N1 (stereo partly drawn) [Example 5, 3-[(1s,4s)-5″-Amino-4″-fluoro-4-methoxydispiro[cyclohexane-1,2′-[1]benzofuran-3′,2″-pyrrol]-5′-yl]-5-fluorobenzonitrile] |  | 8.52 | 7.15 |
| CC1(C)COc2ccc(-c3cncnc3)cc2C12C=C(F)C(N)=N2 (stereo not drawn) [Example 6, 4′-Fluoro-3,3-dimethyl-6-(pyrimidin-5-yl)spiro[chroman-4,2′-pyrrol]-5′-amine] |  | 7.72 | 6.11 |
